Patent US11986482B2, “Method of promoting antitumor or anti-cancer immunity” (City University of Hong Kong, priority 2021, dated 2024)
“Also recorded” adds a separate entry of the source.

Experiments:
[1] = Oral bioavailability (stated, no method); conditions: in vivo
[2] = system: HeLa cells; assay: Fluorescent transferrin conjugates recycling assay; type: cell-based; conditions: compound 3 h, Transferrin-488 25 μg/ml, flow cytometry
Procedure: A DQ-BSA endocytic trafficking assay screens these compounds. DQ-BSA, a self-quenching dye, is internalized into the cytoplasm by endocytosis, after which it is delivered to the lysosomes for degradation to relieve fluorescence-quenching, resulting in bright fluorescence in cells. HeLa cells are plated on 6-well plates and treated with the indicated compound for 3 h. Then, cells are replaced with Trafficking media containing 10 μg/ml DQ-green BSA with or without drugs (1 μM) and incubated at 37° C. in a 5% CO2 humidified cell culture chamber another 6 h followed by Flow cytometry analysis. […] Inventors also test whether these hit compounds can inhibit the recycling endosomal pathway by performing the fluorescent transferrin conjugates recycling assay. Iron-bound transferrin interacts with its receptor (TfR) to trigger the internalization of the iron-transferrin-TfR complex via clathrin-mediated endocytosis. Fe^3+ irons are subsequently dissociated from their ligands in the acidic endosome environment and released into the cytoplasm. […] Thus, the fluorescence intensity of fluorescent transferrin conjugates-labeled cells can reflect the recycling endocytic trafficking process. […] Cells are collected for flow cytometry analysis, and the mean fluorescence intensity of transferrin is quantified.

[3] = system: PD-L1; assay: Plasma membrane PD-L1 level in 4T1 cells (flow cytometry); type: cell-based, mouse; conditions: 1 μM
Procedure: The current PD-L1 and PD1 therapies apply PD-L1 or PD1 monoclonal antibodies to block the PD-L1/PD1 signaling, which results in cytotoxic T cells recognizing and killing the tumor cells. […] First, flow cytometry-based quantification of plasma membrane levels of PD-L1 in 4T1 cells treated with or without 6J1 (1 μM) for 24 h. 4T1 cells are treated with or without 6J1 (1 μM) for 24 h. The supernatant is collected, and the concentration of extracellular vesicle is determined using a Nanosight nanoparticle analyzer in FIG. 8b. The exosomes are also collected and subjected to western blot analysis of the EVs marker and PD-L1 in FIG. 8c.
Therefore, it is possible that the increased exosomal PD-L1 secretion induced by 6J1 may still suppress the tumor-infiltrating T cell cytotoxicity in vivo, even though 6J1 reduces the cell surface expression level of PD-L1 on the tumor cells. To evaluate the role of exosomal PD-L1 in the tumor microenvironment and tumor progression in mice, inventors knock out Rab27a in 4T1 cells to inhibit the secretion of exosomes. 4T1-shNC or 4T1-shRab27A cells are treated with or without 6J1 (1 μM). The supernatant is collected, and the concentration of extracellular vesicle is determined using a Nanosight nanoparticle analyzer. […] Inventors analyze the plasma membrane levels of PD-L1 in 4T1-shNC or 4T1-shRab27A cells treated with or without 6J1 (1 μM). […] Next, control or Rab27a-knockout 4T1 cells are orthotopically transplanted into syngeneic fat pads of female Balb/c. The mice are randomly divided (n=5 per group) and treated with either buffer or 6J1 (30 mg/kg, daily) via oral gavage. […] Inventors also perform the immunostaining of CD8 and Granzyme B in the tumor sections. […] Since enhanced antitumor immunity leads to increased apoptosis in tumors, inventors assess the levels of cleaved caspase3 (CCA3), one of the markers of apoptosis, in tumor sections as well.
Finally, inventors assess the combinatory effects of 6J1 with GW4869, an exosome secretion inhibitor, in the aforementioned orthotopic mammary carcinoma mouse models. […]

[4] = system: HeLa, A549 and MDA-MB-231 cell lines; assay: Cytotoxicity, propidium iodide cell death ratio; type: cell-based; conditions: 24 h or 48 h
Procedure: The inventors also test the cytotoxicity of 6J1 in several cancer cell lines, HeLa, A549 and MDA-MB-231 cell lines. Cells are grown in 96-well plates in triplicate and treated with or without 6J1 at the concentrations of 0, 0.01, 0.1, 1, 10 and 100 μM indicated for 24 h or 48 h. They are then stained with propidium iodide (PI) or Hochest 33342 to measure the cell death ratio and cell number, respectively. […] Inventors also test the cytotoxicity of 6J1 in 4T1 cells. 4T1 cells are plated in 96-well plates in triplicate and treated with or without 6J1 at the concentrations of 0, 0.01, 0.1, 1, 5, 10, 20, 40, 80 and 100 μM indicated for 24 h or 48 h. The cell viability was then quantified via the MTT assay.

[5] = system: 4T1 mouse mammary carcinoma; assay: Orthotopic 4T1 mammary carcinoma model in syngeneic Balb/c mice; type: in vivo; conditions: oral gavage, daily
Procedure: To determine whether 6J1 can promote anti-cancer immunity in vivo, 4T1 cells are orthotopically transplanted into syngeneic Balb/c mice. The mice are randomly divided into three groups (n=7 per group) and treated with either buffer or 6J1 (15 or 30 mg/kg, daily) via oral gavage. Tumor volume and body weight of mice are measured at the indicated time point. After the tumor reaches the indicated size, the mice are treated with 6J1 (via oral gavage) at different doses (15 mg/kg or 30 mg/kg) daily for 4 weeks. […] The effective dosages of 6J1 in vivo can range from about 0.1 mg/kg to about 300 mg/kg; or from about 1 mg/kg to about 200 mg/kg; or from about 3 mg/kg to about 100 mg/kg, taking into account, for example, activity and toxicity

[6] = system: LC3 and p62; assay: Autophagy readouts: LC3/p62 western blot and GFP-RFP-LC3 puncta in HeLa cells; type: cell-based; conditions: 6 h
Procedure: HeLa cells are treated with or without 6J1. After 6 h, cells are collected for western blot analysis of LC3 and p62. […] In addition, ATG5-knockout HeLa cells are transfected with PD-L1-GFP and LC3-RFP, and then treated with or without 6J1 (1 μM) for 24 h. Cells are fixed and imaged. […] Furthermore, LC3B-knockout HeLa cells are transfected with PD-L1-GFP, and then treated with or without 6J1 (1 μM) for 24 h. Cells are fixed and stained with antibodies against Rab5 (FIG. 6d) or Rab27a (FIG. 6e).

[7] = isolated tumor-infiltrating lymphocytes
[8] = GFP-RFP-LC3-expressing HeLa cells, 1 μM

SMILES: OCCOCCN(c1ccccc1)c1nc(N/N=C/c2cccc(I)c2)nc(N2CCOCC2)n1 [Compound 6J1]
- oral bioavailability [1]: good oral bioavailability
- recycling endosomal trafficking of transferrin (mean fluorescence intensity) [2]: effectively inhibit the recycling endosomal trafficking of transferrin; also recorded: performs best
- 6J1-induced decrease of cell surface PD-L1 levels ([3]; 4T1-shRab27A cells): does not influence the 6J1-induced decrease of cell surface PD-L1 levels
- level of cell surface PD-L1 ([3]; 4T1 cells, 24 h): decreases the level of cell surface PD-L1
- cell death ([4]; 0.01-100 μM): induces cell death in a concentration-dependent manner
- cell death at effective concentrations ([4]; ≤1 μM): hardly induces any cell death
- cell surface expression of PD-L1 in the primary tumors ([5]; 30 mg/kg): down-regulated
- tumor growth ([5]; 30 mg/kg, 4 weeks): significantly decreases the tumor growth
- body weight of mice ([5]; 15 or 30 mg/kg, 4 weeks): does not change the body weight of mice
- expression of IFN-γ in CD8+ T cells [5, 7]: little effect
- tumor-infiltrating CD8+ T cell populations [5, 7]: significantly increases the tumor infiltrating CD8+ T cell populations; also recorded: significantly increases the tumor-infiltrating CD8+ T cell populations
- formation of yellow LC3B puncta [6, 8]: significantly induces the formation of yellow LC3B puncta
- red-only LC3B puncta [6, 8]: no red-only LC3B puncta are observed
- level of LC3B-II and P62 ([6]; HeLa cells, western blot): markedly induced an increase in the level of LC3B-II and P62
